System: hNT neurons
Assay: Soma size and neurite outgrowth of TH+ hNT cells (image analysis)
Format: cell-based, human
Conditions: for soma sizes versus control: 5DIV NaCl or KCl-treated cultures; for neurite outgrowth versus control: NaCl and KCl-treated 5DIV
Method: The same series of slides immunostained for TH were employed to measure the soma size (μm^2) and neurite outgrowth (μm) of appropriately 50 TH+ cells per representative culture experiment using a computerized image analysis program (Image-Pro Plus, Media Cybernetics, Inc., Silver Springs, Md.) at 20× objective. The results in the morphological assessment study are reported as mean ±SEM and were analyzed using Student's t-test.

[Cl-].[Na+] [NaCl]
soma sizes versus control: not significantly different from control | neurite outgrowth versus control: did not significantly differ from control values

[Cl-].[K+] [KCl]
soma sizes versus control: not significantly different from control | neurite outgrowth versus control: did not significantly differ from control values
